{"source": "patent US20260042799A1", "about": "“APPLICATION OF PEPTIDE IN PREPARING DRUGS FOR TREATING AND/OR PREVENTING COGNITIVE IMPAIRMENT” (HUAZHONG UNIVERSITY OF SCIENCE AND TECHNOLOGY, priority 2024, published 2026)", "key": {"P301S mice [1]": {"system": "P301S mice", "test": "Novel object recognition test", "assay_type": "in vivo", "conditions": "15 mg/kg subcutaneous, 14 days", "source_text": "(§1) FIG. 3A to FIG. 3J show the statistical chart of TAT-P6 peptide improving mouse learning memory ability results. FIGS. 3A-B are behavioral experiments for four groups of mice (C57 mice injected with TAT-S6 group, C57 mice injected with TAT-P6 group, P301S mice injected with TAT-S6 group, P301S mice injected with TAT-P6 group) using open field test system.\n(§2) Male P301S mice 6-8 months old (purchased from Jackson Laboratory), C57/BL6 mice 6-8 months old (purchased from Beijing Vital River Laboratory Animal Technology Co., Ltd.), SPF grade, weight 20-25 grams, raised in conventional environment.\n• 1) Mouse spatial memory detection: novel object recognition and water maze; • a) Novel object recognition: Before conducting the novel object recognition test, it is necessary to eliminate unfamiliarity with the mice by petting them daily to prevent stimulation during operation. The first stage is adaptation period. […] Within 5 min (many experiments have proven that after 2 min of familiarization period, animals already show good preference for novel objects, and of course, 3 min of familiarization makes the preference more obvious), the number of times, time, and distance the animal explores each object are measured. […] If the platform is not found within 90 s, the system automatically stops recording, and the latency period is recorded as 90 s. […]"}, "[2]": {"target": "T1, binding between HA-GluA2 and EGFP-Syn2b (Homo sapiens, UniProt P42262)", "T1 construct": "HA; expressed in transfected cells; host or cells: HEK293T", "T1 sequence (P42262 25-883)": "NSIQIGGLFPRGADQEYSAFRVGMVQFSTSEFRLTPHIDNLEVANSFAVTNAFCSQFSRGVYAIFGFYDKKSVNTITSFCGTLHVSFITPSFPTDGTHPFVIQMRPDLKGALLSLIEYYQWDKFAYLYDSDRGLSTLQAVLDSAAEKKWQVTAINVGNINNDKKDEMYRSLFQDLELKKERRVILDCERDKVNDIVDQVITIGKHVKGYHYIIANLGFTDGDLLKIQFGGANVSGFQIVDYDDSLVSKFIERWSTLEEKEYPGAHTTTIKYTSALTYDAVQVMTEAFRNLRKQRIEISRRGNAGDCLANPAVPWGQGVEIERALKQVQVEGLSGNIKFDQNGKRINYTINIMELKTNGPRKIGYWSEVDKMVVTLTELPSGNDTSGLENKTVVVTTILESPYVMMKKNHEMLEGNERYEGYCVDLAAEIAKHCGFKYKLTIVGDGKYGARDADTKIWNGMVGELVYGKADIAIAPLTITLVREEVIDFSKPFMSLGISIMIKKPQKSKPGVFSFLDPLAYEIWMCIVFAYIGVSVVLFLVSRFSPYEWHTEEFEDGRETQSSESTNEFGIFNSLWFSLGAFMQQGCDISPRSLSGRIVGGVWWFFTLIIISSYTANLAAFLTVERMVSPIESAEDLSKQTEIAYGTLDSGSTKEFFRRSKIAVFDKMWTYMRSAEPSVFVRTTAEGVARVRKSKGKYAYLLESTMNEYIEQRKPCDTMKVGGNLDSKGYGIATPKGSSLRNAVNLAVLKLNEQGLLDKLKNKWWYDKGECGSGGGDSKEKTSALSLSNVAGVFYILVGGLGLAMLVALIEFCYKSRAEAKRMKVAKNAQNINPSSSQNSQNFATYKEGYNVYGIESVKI", "test": "Co-immunoprecipitation/immunoblotting of Syn2b-GluA2 binding in co-transfected HEK293T cells", "assay_type": "cell-based", "conditions": "10 μM peptide in culture medium for 90 minutes, 48 hours after transfection", "description": "First, HA-GluA2 and EGFP-Syn2b overexpression plasmids were transfected into HEK293T cells. After 48 hours of transfection, 10 μM concentration of TAT-P6 and TAT-S6 peptides were given in the cell culture medium for 90 minutes, […] and then cells were collected. The overexpressed Syn2b protein is a fusion protein of Syn2b and GFP, using anti-GFP antibody to precipitate cellular proteins, and then using anti-GluA2 antibody to detect the precipitated proteins, the black imprint on the NC membrane indicates the interaction between GluA2 and Syn2b.\nOpen field experiment: The open field experiment is an experiment in which animals are placed in a closed open metal box area with a length of 80 cm, width of 80 cm, and height of 50 cm to observe mouse activity. This area is divided into squares, and typically the number of squares crossed by mice within a given time is counted to examine the anxiety emotional state and movement ability of the experimental mice. […] Recording is stopped after observing for a certain time, generally about 5 minutes. • 3) Quantify mouse hippocampal related protein content: immunoblotting; • 4) Disrupting the binding of Syn2b and GluA2 in HEK 293T cells: co-immunoprecipitation, immunoblotting. […]"}, "P301S mice [3]": {"system": "P301S mice", "test": "Open field test, P301S mice", "assay_type": "in vivo", "conditions": "C57 and P301S mice, 15 mg/kg subcutaneous, 14 days", "source_text": "as §1, §2\nOpen field experiment: The open field experiment is an experiment in which animals are placed in a closed open metal box area with a length of 80 cm, width of 80 cm, and height of 50 cm to observe mouse activity. This area is divided into squares, and typically the number of squares crossed by mice within a given time is counted to examine the anxiety emotional state and movement ability of the experimental mice. […] The experimental area is set up on the computer, the experimental area is divided equally into a “ ? ” shape, with the innermost circle as the central region and the outermost as the peripheral region, then the camera is turned on, the light source is adjusted, and information such as the position, movement route, and distance of the experimental mice is recorded using the computer. […]"}, "P301S mice [4]": {"system": "P301S mice", "test": "Morris water maze test", "assay_type": "in vivo", "conditions": "detection stage on the 8th day, 15 mg/kg subcutaneous, 14 days", "source_text": "as §1, §2\n• 1) Mouse spatial memory detection: novel object recognition and water maze; • a) Novel object recognition: Before conducting the novel object recognition test, it is necessary to eliminate unfamiliarity with the mice by petting them daily to prevent stimulation during operation. The first stage is adaptation period. Mice move freely in the experimental device (without objects) for 10 minutes. The second stage is familiarization period. […] Within 5 min (many experiments have proven that after 2 min of familiarization period, animals already show good preference for novel objects, and of course, 3 min of familiarization makes the preference more obvious), the number of times, time, and distance the animal explores each object are measured. […] During training, the mouse is gently placed in the water from a ½ radian position of any quadrant with its head facing the pool wall, and its latency period (the time taken by the mouse to find the platform from entering the water) and path are detected as indicators to measure the mouse's learning memory and test performance. […] If the platform is not found within 90 s, the system automatically stops recording, and the latency period is recorded as 90 s. […] The initial training period is 6 days, with daily recording of the time needed for mice to find the platform, recorded as the latency period required for mice to find the platform. […]"}, "[5]": {"test": "Solubility of the synthesized peptide in water", "assay_type": "physicochemical", "conditions": "white powder", "source_text": "The sequence of TAT-P6 is shown in SEQ ID NO:3, artificially synthesized by Jiangsu Qiangyao Biotechnology Co., Ltd., and the mass spectrometry analysis is shown in FIG. 1. […] The sequence of TAT-S6 is shown in SEQ ID NO:4, also synthesized by the same company."}}, "note": "“Also recorded” adds a separate entry of the source. Where no end group is shown, it is not given here."}
{"sequence": "YGRKKRRQRRRCNDILY [TAT-S6]", "values": [{"measurement": "time spent at the new object", "setting": "P301S mice [1]", "result": "spent less time at the new object"}, {"measurement": "GluA2 detected by anti-GluA2 antibody in anti-GFP (Syn2b) precipitate; interaction between Syn2b and GluA2", "setting": "[2]", "result": "could be clearly detected"}, {"measurement": "movement ability of mice", "setting": "P301S mice [3]", "result": "did not change the movement ability"}, {"measurement": "latency to reach the platform in the water maze", "setting": "P301S mice [4]", "result": "prolonged latency to reach the platform"}, {"measurement": "number of times crossing the platform position in the water maze", "setting": "P301S mice [4]", "result": "crossed the platform significantly fewer times"}, {"measurement": "time spent in the target quadrant in the water maze", "setting": "P301S mice [4]", "result": "spent significantly less time in the target quadrant"}]}
{"sequence": "YGRKKRRQRRRYILDCN [TAT-P6, YGRKKRRQRRRYILDCN]", "values": [{"measurement": "solubility in water", "setting": "[5]", "result": "completely soluble; also recorded: completely dissolved in water"}]}
